{
  "source": "ChEMBL document CHEMBL5241093",
  "about": "“Recent advances in the design and discovery of synthetic tyrosinase inhibitors” (Eur J Med Chem, 2021)",
  "key": {"[1]": {"target": "T1, Tyrosinase (Agaricus bisporus, UniProt O42713)", "T1 sequence (O42713 whole entry)": "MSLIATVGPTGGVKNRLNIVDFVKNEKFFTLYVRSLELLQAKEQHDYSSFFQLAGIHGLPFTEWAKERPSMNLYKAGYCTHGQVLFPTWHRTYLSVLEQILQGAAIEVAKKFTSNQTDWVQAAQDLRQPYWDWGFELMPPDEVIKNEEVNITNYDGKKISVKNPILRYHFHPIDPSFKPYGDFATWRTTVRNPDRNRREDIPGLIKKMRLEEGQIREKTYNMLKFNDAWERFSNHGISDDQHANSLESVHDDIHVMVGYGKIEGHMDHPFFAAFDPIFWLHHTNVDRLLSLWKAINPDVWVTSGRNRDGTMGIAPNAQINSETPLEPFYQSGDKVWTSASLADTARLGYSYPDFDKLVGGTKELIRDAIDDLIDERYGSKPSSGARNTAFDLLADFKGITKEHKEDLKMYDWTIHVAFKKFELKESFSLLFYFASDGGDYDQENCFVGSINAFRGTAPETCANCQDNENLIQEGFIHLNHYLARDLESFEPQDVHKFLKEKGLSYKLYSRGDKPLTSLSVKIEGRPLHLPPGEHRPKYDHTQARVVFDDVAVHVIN", "experiment": "Inhibition of mushroom tyrosinase incubated for 20 mins by spectrophotometric assay"}, "[2]": {"tested_on": "B16-F10", "experiment": "Inhibition of melanin production in mouse B16-F10 cells assessed reduction in melanin level measured after 72 hrs by ELISA assay relative to control", "format": "functional"}, "[3]": {"target": "T1, Tyrosinase", "experiment": "Inhibition of mushroom tyrosinase using L-dopa as substrate assessed as diphenolase activity preincubated for 20 mins followed by substrate addition measured after 10 mins by plate reader analysis"}, "[4]": {"target": "T1, Tyrosinase", "experiment": "Inhibition of mushroom tyrosinase using L-tyrosine as substrate assessed as monophenolase activity preincubated for 20 mins followed by substrate addition measured after 10 mins by plate reader analysis"}, "[5]": {"target": "T1, Tyrosinase", "experiment": "Inhibition of mushroom tyrosinase using L-tyrosine as substrate preincubated for 15 mins followed by substrate addition measured after 30 mins by plate reader analysis"}, "[6]": {"target": "T1, Tyrosinase", "experiment": "Inhibition of mushroom tyrosinase using L-DOPA as substrate incubated for 10 mins by spectrophotometric assay"}, "[7]": {"target": "T1, Tyrosinase", "experiment": "Inhibition of mushroom tyrosinase using L-tyrosine as a substrate incubated for 10 mins"}, "[8]": {"target": "T1, Tyrosinase", "experiment": "Inhibition of mushroom tyrosinase using L-dopa as substrate by spectrophotometric analysis"}, "[9]": {"target": "T1, Tyrosinase", "experiment": "Inhibition of mushroom tyrosinase using L-DOPA as substrate preincubated for 10 mins followed by substrate addition measured after 20 mins by microtitre plate reader analysis"}, "[10]": {"target": "T1, Tyrosinase", "description": "Inhibition of mushroom tyrosinase using L-DOPA as substrate assessed as inhibition constant preincubated for 15 mins followed by substrate addition measured after 2 mins by microtitre plate reader analysis"}, "[11]": {"target": "T1, Tyrosinase", "experiment": "Inhibition of mushroom tyrosinase using L-DOPA as substrate by HTS analysis"}, "[12]": {"target": "T1, Tyrosinase", "experiment": "Inhibition of mushroom tyrosinase using L-DOPA as substrate preincubated for 10 mins followed by substrate addition measured after 5 mins"}, "[13]": {"target": "T1, Tyrosinase", "experiment": "Inhibition of mushroom tyrosinase using L-DOPA as substrate preincubated for 10 mins followed by substrate addition measured after 20 mins"}, "[14]": {"target": "T1, Tyrosinase", "experiment": "Inhibition of mushroom tyrosinase using L-dopa as substrate incubated for 30 mins by spectrophotometric analysis"}, "[15]": {"target": "T1, Tyrosinase", "experiment": "Inhibition of mushroom tyrosinase using L-DOPA as substrate incubated for 30 mins"}, "[16]": {"tested_on": "B16", "experiment": "Anti-melanoma activity against mouse B16 cells assessed as inhibition of tyrosinase activity incubated for 48 hrs by spectrophotometer analysis relative to control", "format": "functional"}, "[17]": {"target": "T1, Tyrosinase", "experiment": "Inhibition of mushroom tyrosinase using L-DOPA as substrate incubated for 20 mins by microplate reader analysis"}, "[18]": {"experiment": "Antioxidant activity assessed as DPPH radical scavenging activity incubated for 30 mins under dark condition by microplate reader analysis", "format": "functional"}, "[19]": {"target": "T1, Tyrosinase", "experiment": "Inhibition of mushroom tyrosinase using L-tyrosine as substrate assessed as monophenolase activity"}, "[20]": {"target": "T1, Tyrosinase", "experiment": "Inhibition of mushroom tyrosinase using L-DOPA as substrate assessed as diphenolase activity"}, "[21]": {"target": "T1, Tyrosinase", "experiment": "Inhibition of mushroom tyrosinase using L-dopa as substrate incubated for 30 mins by microplate reader analysis"}, "[22]": {"target": "T1, Tyrosinase", "experiment": "Inhibition of mushroom tyrosinase using L-DOPA as substrate incubated for 20 mins"}, "[23]": {"target": "T1, Tyrosinase", "experiment": "Inhibition of mushroom tyrosinase using L-dopa as substrate assessed as monophenolase activity by microplate reader analysis"}, "[24]": {"target": "T1, Tyrosinase", "experiment": "Inhibition of mushroom tyrosinase using L-tyrosine as substrate assessed as […] activity by microplate reader analysis"}},
  "data": [
    {"smiles": "O=C(/C=C/c1cccc(Cl)c1)NCCN1CCOCC1", "values": [
      {"measurement": "IC50", "setting": "[1]", "value": 15.2, "unit": "µM"}
    ]},
    {"smiles": "COc1ccc(-c2n[nH]c(S)n2)cc1", "values": [
      {"measurement": "inhibition (INH)", "setting": "[2]", "value": 55, "unit": "%"}
    ]},
    {"smiles": "N/C(S)=N/N=C/c1ccc([N+](=O)[O-])cc1", "values": [
      {"measurement": "IC50", "setting": "[3]", "value": 1.74, "unit": "µM"},
      {"measurement": "IC50", "setting": "[4]", "value": 0.05, "unit": "µM"}
    ]},
    {"smiles": "CCCCOC(=O)/C=C/c1ccc(O)cc1", "values": [
      {"measurement": "IC50", "setting": "[5]", "value": 69, "unit": "µM"}
    ]},
    {"smiles": "CCOC(OCC)c1ccc(/C=C2\\CCC/C(=C\\c3ccc(C(OCC)OCC)cc3)C2=O)cc1", "values": [
      {"measurement": "IC50", "setting": "[6]", "value": 10.1, "unit": "µM"}
    ]},
    {"smiles": "CCOC(OCC)c1ccc(/C=C2\\Cc3ccccc3C2=O)cc1", "values": [
      {"measurement": "IC50", "setting": "[6]", "value": 6.83, "unit": "µM"}
    ]},
    {"smiles": "CCOC(OCC)c1ccc(/C=C/C(=O)C2CCc3ccccc3C2=O)cc1", "note": "(stereo not drawn)", "values": [
      {"measurement": "IC50", "setting": "[6]", "value": 5.84, "unit": "µM"}
    ]},
    {"smiles": "O=C(O)CSc1nnc(NC(=S)Nc2cccc(C(F)(F)F)c2)s1", "values": [
      {"measurement": "IC50", "setting": "[7]", "value": 15, "unit": "µM"}
    ]},
    {"smiles": "O=C1CSC(c2ccccc2O)N1c1ccc(-c2ccc(N3C(=O)CSC3c3ccccc3O)cc2)cc1", "note": "(stereo not drawn)", "values": [
      {"measurement": "IC50", "setting": "[8]", "value": 0.61, "unit": "µM"}
    ]},
    {"smiles": "COc1cc(C2CC(c3cc4ccccc4oc3=O)=NN2c2nc(-c3ccc(Br)cc3)cs2)ccc1OCc1ccccc1", "note": "(stereo not drawn)", "values": [
      {"measurement": "IC50", "setting": "[9]", "value": "< 0.1", "unit": "µM"}
    ]},
    {"smiles": "CCn1c2ccccc2c2cc(NC(=O)CSc3nc4ccccc4[nH]3)ccc21", "values": [
      {"measurement": "Ki", "setting": "[10]", "value": 1.64, "unit": "µM"}
    ]},
    {"smiles": "CC(C)C(=O)Nc1nc(-c2ccc(O)cc2O)cs1", "values": [
      {"measurement": "IC50", "setting": "[11]", "value": 108, "unit": "µM"}
    ]},
    {"smiles": "Clc1ccc(Cn2cc(COc3ccc(-c4nc5ccccc5[nH]4)cc3)nn2)cc1Cl", "values": [
      {"measurement": "IC50", "setting": "[12]", "value": 9.42, "unit": "µM"}
    ]},
    {"smiles": "Cc1ccc(C(C)C)cc1NC(=O)COC(=O)c1ccc(O)cc1O", "values": [
      {"measurement": "IC50", "setting": "[13]", "value": 11, "unit": "µM"}
    ]},
    {"smiles": "COc1cc([N+](=O)[O-])ccc1/C=C/C(=N\\O)c1cc2ccccc2cc1O", "values": [
      {"measurement": "IC50", "setting": "[14]", "value": 4.77, "unit": "µM"}
    ]},
    {"smiles": "O=C(COC(=O)c1ccc(O)cc1O)Oc1ccc2oc(=O)ccc2c1", "values": [
      {"measurement": "IC50", "setting": "[15]", "value": 8.96, "unit": "µM"}
    ]},
    {"smiles": "CC(=O)Nc1ccc(/N=N/c2c(N)nc(N)nc2Cl)cc1", "values": [
      {"measurement": "IC50", "setting": "[12]", "value": 24.4, "unit": "µM"}
    ]},
    {"smiles": "CC(=O)OC[C@H]1O[C@@H](Oc2ccc(O)cc2)[C@H](O)[C@@H](O)[C@@H]1O", "values": [
      {"measurement": "inhibition (INH)", "setting": "[16]", "value": 71.4, "unit": "%"}
    ]},
    {"smiles": "Cc1cc(OCc2cn(Cc3ccc(F)cc3)nn2)c(C=C2C(=O)NC(=S)NC2=O)cc1Br", "values": [
      {"measurement": "IC50", "setting": "[17]", "value": 24.6, "unit": "µM"},
      {"measurement": "EC50", "setting": "[18]", "value": 39.2, "unit": "µM"}
    ]},
    {"smiles": "O=C(OCc1cc(=O)c(O)c[nH]1)[C@H](Cc1ccccc1)NCc1ccccc1", "values": [
      {"measurement": "IC50", "setting": "[19]", "value": 1.95, "unit": "µM"},
      {"measurement": "IC50", "setting": "[20]", "value": 8.97, "unit": "µM"}
    ]},
    {"smiles": "O=C1/C(=C/c2ccc(O)c(Br)c2)CSc2ccccc21", "values": [
      {"measurement": "IC50", "setting": "[21]", "value": 4.1, "unit": "µM"}
    ]},
    {"smiles": "OCC1CSC(c2ccc(O)cc2O)S1", "note": "(stereo not drawn)", "values": [
      {"measurement": "IC50", "setting": "[21]", "value": 13.9, "unit": "µM"}
    ]},
    {"smiles": "COc1cc(/C=N/NC(=O)c2ccc(O)c(OC)c2)ccc1O", "values": [
      {"measurement": "IC50", "setting": "[22]", "value": 10, "unit": "µM"}
    ]},
    {"smiles": "COc1ccccc1/C=C/C=N/Nc1nnc(SCc2cc(=O)c(O)co2)n1C", "values": [
      {"measurement": "IC50", "setting": "[23]", "value": 20.5, "unit": "µM"},
      {"measurement": "IC50", "setting": "[24]", "value": 7.5, "unit": "µM"}
    ]}
  ]
}
